Experimental findings from patent US6645965B1, “Nitrate salts of antihypertensive medicines” (priority 1998, dated 2003) are described below.

Data set [1] has as its system isolated human cavernous artery. Briefly: Relaxation of isolated human cavernous artery pre-contracted with adrenaline. To be noted: 10^−6 M; adrenaline 3.10^−6 M. The text has this:
(§1) The relaxation effect of the cavernous artery and of the human cavernosum corpora (vasodilating effect at a peripheric level) was also studied. It was used the technique described by R. G. Hempelmann et al., European Journal of Pharmacology 276, 277-280 (1995), employing erectile tissues coming from patients submitted to surgical operation. The cavernous arteries have been isolated and cleaned up from the surrounding connective tissue. Segments of about 2 mm length were obtained and were mounted in a myograph equipment.
(§2) After having drawn an experimental curve diameter/tension, the specimens have been adjusted to a diameter corresponding to 90% of the one reached in the presence of a transluminal pressure of 100 mm Hg; after a stabilization period of about 60 minutes, contraction was effected by adrenaline 3.10^−6 M. After 15 minutes a dose corresponding to 10^−6 M of each of the tested compounds was added and the relaxation percentage was recorded.

Data set [2] has as its system isolated human cavernous tissue. Briefly: Relaxation of isolated human cavernous tissue strips precontracted with adrenaline. To be noted: 10^−6 M; adrenaline 3.10^−6 M.
Description: as §1, §2
A second series of experiments has been carried out according to the same protocol, on the isolated strips, 3×3×5 mm, of cavernous tissue, isometrically suspended in baths for isolated organs, under a 5-10 mN tension.

The test system of data set [3] is prostatic part of the deferent vessel contracted by transmural stimulation. Briefly: Prostatic deferent vessel constriction induced by submaximum electric stimulation, rats treated with L-NAME. Details: species or system rat. To be noted: 10 mg/kg s.c. daily for five days, tested substance 10^−6 M, within 5 minutes, Carrier = 100. Here is the method:
The compounds have been administered in physiological solution. The control group has been treated with the carrier (physiologic solution) only. The vaso-relaxing activity of Sildenafil nitrate was determined by using the experimental model of the prostatic deferent vessels constriction, induced by submaximum electric stimulation (D. A. Taylor et al., J. Pharmacol. Exp. Ther. 224, 40-45 1983), in rats treated with N^w-nitro-L-arginine methyl ester (L-NAME) as described by Ribeiro et al., Hypertension, 20, 298, 1992. […] […] One hour after the last treatment,. the animals were sacrificed and the prostatic part of the deferent vessel was removed, dipped in a physiologic solution at 37° C., and contracted by transmural stimulation (95% of the maximum stimulation, 0.2 Hz). The reduction of the neurogenic contractive response, which results within 5 minutes from the addition of the tested substance at a concentration of 10^−6 M, is taken as a measure of the vasorelaxing activity.

Data set [4] relates to bronchoconstriction induced in guinea pigs by the Capsaicin injection. Briefly: Experimental bronchoconstriction induced by Capsaicin injection (tidal air variation, Konzett apparatus). The class given is in vivo, guinea pig. As to the method: The compounds at a dose of 10 mg/kg and the corresponding carrier have been administered to the guinea pigs (groups of 6 animals each) by intraperitoneal route for three consecutive days. The animals were prepared according to the method of Del Soldato et al. J. Pharmacol. Methods 5 279 1981. 45 minutes later 0.1 ml of a Capsaicin saline solution (1 μg/Kg) was injected to the animals intravenously. The tidal air variation before and after the Capsaicin administration was measured by a Konzett apparatus, modified as described in the above mentioned reference, connected to a polygraphic system. The effects of the compounds and of their corresponding nitrate salts on the experimental bronchoconstriction induced in guinea pigs by the Capsaicin injection are reported in Table 1.

Data set [5] relates to arterial hypertension induced by L-NAME. Briefly: Arterial hypertension induced by L-NAME, systemic arterial pressure by caudal way. The class given is in vivo, rat. To be noted: Carrier 170 ± 7. As to the method:
The inhibiting effect of Losartan nitrate on the arterial hypertension has been assayed by using two experimental models: the arterial hypertension induced by L-NAME (see the preceding example) and the muscular contraction produced by Angiotensin II. In the first experiment Wistar adult male rats (235-284 g) received for 6 weeks drinking water containing L-NAME. at a 60-70 mg/100 ml concentration, equivalent to a daily dose of about 60 mg/Kg. […] One hour after the last treatment, the systemic arterial pressure was determined by caudal way, as described by Zatz, Lab. Anim. Sci., 42, 198, 1990. […] In the second experiment the method described by Taylor (see Example 10) has been followed as described before. The prostatic part of the isolated deferent duct of rats (200-220 g) was removed and dipped in a physiologic solution at 37° C. and then contracted by transmural stimulation (95% of the maximum stimulation, 0.2 Hz).

Data set [6] concerns prostatic part of the isolated deferent duct contracted by transmural stimulation. Briefly: Vascular contraction of isolated rat deferent duct induced by electric stimulation. To be noted: compound 10^−6 M, within 5 minutes, Carrier = 100. An excerpt:
The inhibiting effect of Minoxidil nitrate on the arterial hypertension has been determined by using two experimental models: the arterial hypertension induced by L-NAME (see Example 10) and the vascular contraction induced by electric stimulation. In the first pharmacological experiment the rats have been treated as described in the pharmacological experiment with L-NAME of Example 11. In the second experiment the method described by Taylor (see Example 10) has been followed as described before. The prostatic part of the isolated deferent duct of rats (200-220 g) was removed and dipped in a physiologic solution at 37° C. and then contracted by transmural stimulation (95% of the maximum stimulation, 0.2 Hz).
The vasorelaxing activity is expressed as the reduction of the contractive neurogenic response, determined within 5 minutes from the. addition of the tested compound at a 10^−6 M concentration.

The test system of data set [7] is muscular contraction produced by Angiotensin II (isolated ileum). Briefly: Contraction of isolated guinea pig ileum produced by Angiotensin II. To be noted: Angiotensin II 10 mcg/ml, compound 10^−6M, Carrier = 100. An excerpt:
In the second experiment (contraction produced by Angiotensin II), the method described by P. C. Wong et al., Hypertension, 13, 489-497, 1989 has been followed.

Data set [8] relates to left atrium specimens stimulated by Isoprenaline. Briefly: Inotropic-positive effect caused by Isoprenaline in guinea pig left atrium (beta-adrenolytic activity). To be noted: Isoprenaline 10 mcg/ml, compound 10^−6M, Carrier = 100. As to the method:
In the latter experiment the method described by Grodzinski et al., Arch. Int. Phramacodyn., 191, 133-141, 1971 was followed. The left atrium specimens taken from guinea pigs (300-350 g) were maintained at 32° C. in a physiologic solution wherein the concentration of calcium ion was ⅓ lower and stimulated by Isoprenaline (10 mcg/ml). The beta-adrenolitic activity is expressed as the reduction of the inotropic-positive effect (increase of the cardiac muscle contraction) following addition of the compound under examination at a 10^−6M concentration.

Another data set concerns gastric tissue. Briefly: Gastric toxicity in rats given ethanol 50% by os (gastric lesions). To be noted: Sprague-Dawley male rats (n=10), 10 mg/Kg i.p. as free base, ethanol 50% by os 30 minutes later; Controls 50. The format is in vivo. Here is the method:
5 groups of Sprague-Dawley male rats (n=10), were fasted for 24 hours. 4 groups were then respectively treated i.p. with Sildenafil, Zaprinast, and the relevant nitrate salts of said drugs. One group was not treated and was tha control group. 30 minutes later 1 ml of ethanol 50% in water was given by os to the animals.
One hour later the animals were sacrificed. The stomach was removed and the gastric tissue was macroscopically examined.
The results are reported in Table X. In the Table the gastric toxicity given as % incidence is the number of rats in a group showing gastric lesions.

The subject of data set [9] is ileal contraction caused by calcium chloride. Briefly: Ileal contraction caused by calcium chloride (calcium antagonist activity). The following applies: guinea pig ileum, calcium chloride 20 mcg/ml, compound 10^−6 M; Carrier = 100. Here is the method: In the latter, the experimental model adapted was that of the ileal contraction caused by calcium chloride, according to the method described by M. J. Spedding, J. Pharmacology 83, 211-220, 1984. Ileus segments taken from guinea pig (300-350 g) were maintained at 37° C. in a physiologic solution not containing calcium ions and then stimulated by calcium chloride addition (final concentration 20 mcg/ml). The calcium antagonist activity was determined as the reduction of the ileal contraction following addition of each of the test compounds at a concentration 10^−6 M.

A short description of data set [10]: Diuretic effect in rats (urine volume over 6 hours). The format is in vivo, rat. To be noted: 10 mg/Kg subcutaneously, urine volume over 6 hours as percentage of carrier group. Here is the method:
In the latter experiment the diuretic effect was studied according to the method described by W. L. Lipschwitz et al. J. Pharmacol. Exp. Ther., 79, 97-110, 1943. No 3 groups of 6 rats (200-220 g) each, stalled in metabolic cages received drinking distilled water (25 ml/Kg p.o.). Each group was then subcutaneously injected with Amiloride nitrate (10 mg/Kg), Amiloride (10 mg/Kg) or carrier respectively. The urine volume was collected during a period of 6 hours following drug administration, measured in ml. The diuretic effect is expressed as percentage of the collected urine volume calculated on that of the group treated with the carrier.

[11] abbreviates: guinea pigs, 10 mg/kg intraperitoneal for three consecutive days, Capsaicin 1 μg/Kg i.v., Carrier = 100.
[12] abbreviates: Table VI, L-NAME rats treated as in Example 11.
The mark [13] stands for this setting: Table V, L-NAME rats, 10 mg/kg s.c. daily for five days, one hour after last treatment.
The mark [14] stands for this setting: Table VII, L-NAME rats, model of Example 11.
[15] abbreviates: Table VIII, L-NAME rats, model of Example 11.

For the compound `[NH-]c1c[n+](N2CCOCC2)no1` [SIN-1], in data set [1], the “Relaxing effect on the isolated human cavernous artery pre-contracted with adrenaline (n = 5) (relaxation %)” value (from here on “Relaxing effect … (n = 5) (relaxation %)”) is listed as 36 ± 7%. The “Relaxing effect on the isolated human cavernous tissue precontracted with adrenaline (n = 4) (relaxation %)” value (“Relaxing effect … (n = 4) (relaxation %)” for short) in [2] came out at 33 ± 4%.

On to `CCCc1nn(C)c2c(=O)[nH]c(-c3cc(S(=O)(=O)N4CCN(C)CC4)ccc3OCC)nc12` [Sildenafil], for which the “Relaxing effect … (n = 5) (relaxation %)” value in data set [1] amounted to 25 ± 4%. Moreover, the “Effect on vasoconstriction (%)” value in [3] turned out to be 68%. Besides, the “Relaxing effect … (n = 4) (relaxation %)” value in data set [2] came to 42 ± 6%.

On to `CC(C)NCC(O)COc1cccc2ccccc12` (stereo not shown) [Propranolol, reference compound], for which the “Bronchoconstrictive effect (%)” value in [4] (setting [11]) came to 280%.

Consider `Nc1cc(N2CCCCC2)nc(N)[n+]1[O-]` [Minoxidil, 6-(1-piperidiny-1)-2,4-pyrimidinediamine 3-oxide, reference compound], for which the “Average arterial pressure (mm Hg)” value in data set [5] (setting [12]) turned out to be 132 ± 6 mm Hg. Besides, the “Effect on the vasoconstriction % (n = 5)” value in data set [6] was 18%.

For the compound “Propranolol nitrate salt [Propranolol.HNO3]”, the “Bronchoconstrictive effect (%)” value in [4] (setting [11]) is 110%.

With `CCCCc1nc(Cl)c(CO)n1Cc1ccc(-c2ccccc2-c2nn[nH]n2)cc1` [Losartan, reference compound], in data set [7], the “Effect on the contraction of the smooth musculature % (n = 5)” value was 33%. The “Average arterial pressure (mm Hg)” value in data set [5] (setting [13]) stood at 153 ± 5 mm Hg.

In the case of `CC(C)(C)NC[C@H](O)COc1nsnc1N1CCOCC1` [Timolol, reference compound], the “Inotropic positive effect % (n = 5)” value in data set [8] is reported as 32%. In addition, the “Bronchoconstrictive effect (%)” value in data set [4] (setting [11]) amounted to 188%. Besides, the “Average arterial pressure (mm Hg)” value in data set [5] (setting [14]) was determined as 144 ± 5 mm Hg.

Timolol nitrate salt [Timolol.HNO3]: the “Inotropic positive effect % (n = 5)” value in data set [8] came to 13%. The “Bronchoconstrictive effect (%)” value in [4] (guinea pig, in vivo, 10 mg/kg) is reported as 94%. Further, the “Average arterial pressure (mm Hg)” value in data set [5] (setting [14]) amounted to 108 ± 8 mm Hg.

In the case of Zaprinast Nitrate [Zaprinast.HNO3], in the data set with gastric tissue, the “Gastric toxicity (% incidence)” value came out at 30 % incidence.

As to “Sildenafil Nitrate Salt [Sildenafil.HNO3]”, the “Relaxing effect … (n = 5) (relaxation %)” value in data set [1] was 61 ± 3%. In data set [3], the “Effect on vasoconstriction (%)” value stood at 25%. Besides, in [2], the “Relaxing effect … (n = 4) (relaxation %)” value is reported as 68 ± 7%.

For `COC(=O)C1=C(C)NC(C)=C(C(=O)OCCN(C)Cc2ccccc2)C1c1cccc([N+](=O)[O-])c1` (stereo not shown) [Nicardipine, 1,4-dihydro-2,6-dimethyl-4-(3-nitrophenyl)-3,5-pyridinedicarboxylic acid methyl 2[methyl-(phenylmethyl)amino]ethyl ester, reference compound], in data set [9], the “Contracturing effect % (n = 5)” value amounted to 25%. In addition, the “Average arterial pressure (mm Hg)” value in data set [5] (setting [15]) stood at 122 ± 6 mm Hg.

As to “Nicardipine Nitrate Salt [Nicardipine.HNO3]”, the “Contracturing effect % (n = 5)” value in [9] is given as 8%. For the same compound, the “Average arterial pressure (mm Hg)” value in [5] (setting [15]) came out at 108 ± 3 mm Hg.

As for Minoxidil nitrate [Minoxidil.HNO3], in data set [5] (setting [12]), the “Average arterial pressure (mm Hg)” value came out at 110 ± 6 mm Hg. The “Effect on the vasoconstriction % (n = 5)” value in [6] was 5%.

Turning to Losartan nitrate [Losartan.HNO3], the “Effect on the contraction of the smooth musculature % (n = 5)” value in data set [7] turned out to be 12%. Also, in [5] (setting [13]), the “Average arterial pressure (mm Hg)” value is listed as 115 ± 4 mm Hg.

As to Amiloride Nitrate Salt [Amiloride.HNO3], in data set [5] (Table IX, L-NAME rats, model of Example 11), the “Average arterial pressure (mm Hg)” value was 110 ± 5 mm Hg. Besides, the “Diuretic effect % (n = 5)” value in data set [10] was found to be 215%.
